According to patent US6117841A, “Substituted peptidylamine calcium channel blockers” (Warner-Lambert Company, priority 1999, dated 2000):

Target: T1, N-type Ca^2+ Channel (Homo sapiens, UniProt Q00975)
T1 construct: host or cells: IMR-32 cells differentiated with dibutyryl cAMP and bromodeoxyuridine
Assay: Measurement of N-type Ca2+ channel blocking potencies in IMR-32 cells using the fluorescent Ca2+ indicator Indo-1
Type: cell-based
Settings: 0.3 μM; IMR-32 cells, 5 μM nitrendipine
Procedure, shortened: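 IMR-32 cells were differentiated 7–13 days (1 mM dibutyryl cAMP, 2.5 µM BrdU) and Indo-1-loaded. They were preincubated 10 min at 30 °C with compound and 5 µM nitrendipine in HEPES/Tris pH 7.4 HBSS with 0.5% BSA, then KCl/CaCl2-depolarized. The peak-minus-basal 400/490 nm emission ratio gave IC50 by four-parameter logistic fit.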

T1 sequence (Q00975 whole entry): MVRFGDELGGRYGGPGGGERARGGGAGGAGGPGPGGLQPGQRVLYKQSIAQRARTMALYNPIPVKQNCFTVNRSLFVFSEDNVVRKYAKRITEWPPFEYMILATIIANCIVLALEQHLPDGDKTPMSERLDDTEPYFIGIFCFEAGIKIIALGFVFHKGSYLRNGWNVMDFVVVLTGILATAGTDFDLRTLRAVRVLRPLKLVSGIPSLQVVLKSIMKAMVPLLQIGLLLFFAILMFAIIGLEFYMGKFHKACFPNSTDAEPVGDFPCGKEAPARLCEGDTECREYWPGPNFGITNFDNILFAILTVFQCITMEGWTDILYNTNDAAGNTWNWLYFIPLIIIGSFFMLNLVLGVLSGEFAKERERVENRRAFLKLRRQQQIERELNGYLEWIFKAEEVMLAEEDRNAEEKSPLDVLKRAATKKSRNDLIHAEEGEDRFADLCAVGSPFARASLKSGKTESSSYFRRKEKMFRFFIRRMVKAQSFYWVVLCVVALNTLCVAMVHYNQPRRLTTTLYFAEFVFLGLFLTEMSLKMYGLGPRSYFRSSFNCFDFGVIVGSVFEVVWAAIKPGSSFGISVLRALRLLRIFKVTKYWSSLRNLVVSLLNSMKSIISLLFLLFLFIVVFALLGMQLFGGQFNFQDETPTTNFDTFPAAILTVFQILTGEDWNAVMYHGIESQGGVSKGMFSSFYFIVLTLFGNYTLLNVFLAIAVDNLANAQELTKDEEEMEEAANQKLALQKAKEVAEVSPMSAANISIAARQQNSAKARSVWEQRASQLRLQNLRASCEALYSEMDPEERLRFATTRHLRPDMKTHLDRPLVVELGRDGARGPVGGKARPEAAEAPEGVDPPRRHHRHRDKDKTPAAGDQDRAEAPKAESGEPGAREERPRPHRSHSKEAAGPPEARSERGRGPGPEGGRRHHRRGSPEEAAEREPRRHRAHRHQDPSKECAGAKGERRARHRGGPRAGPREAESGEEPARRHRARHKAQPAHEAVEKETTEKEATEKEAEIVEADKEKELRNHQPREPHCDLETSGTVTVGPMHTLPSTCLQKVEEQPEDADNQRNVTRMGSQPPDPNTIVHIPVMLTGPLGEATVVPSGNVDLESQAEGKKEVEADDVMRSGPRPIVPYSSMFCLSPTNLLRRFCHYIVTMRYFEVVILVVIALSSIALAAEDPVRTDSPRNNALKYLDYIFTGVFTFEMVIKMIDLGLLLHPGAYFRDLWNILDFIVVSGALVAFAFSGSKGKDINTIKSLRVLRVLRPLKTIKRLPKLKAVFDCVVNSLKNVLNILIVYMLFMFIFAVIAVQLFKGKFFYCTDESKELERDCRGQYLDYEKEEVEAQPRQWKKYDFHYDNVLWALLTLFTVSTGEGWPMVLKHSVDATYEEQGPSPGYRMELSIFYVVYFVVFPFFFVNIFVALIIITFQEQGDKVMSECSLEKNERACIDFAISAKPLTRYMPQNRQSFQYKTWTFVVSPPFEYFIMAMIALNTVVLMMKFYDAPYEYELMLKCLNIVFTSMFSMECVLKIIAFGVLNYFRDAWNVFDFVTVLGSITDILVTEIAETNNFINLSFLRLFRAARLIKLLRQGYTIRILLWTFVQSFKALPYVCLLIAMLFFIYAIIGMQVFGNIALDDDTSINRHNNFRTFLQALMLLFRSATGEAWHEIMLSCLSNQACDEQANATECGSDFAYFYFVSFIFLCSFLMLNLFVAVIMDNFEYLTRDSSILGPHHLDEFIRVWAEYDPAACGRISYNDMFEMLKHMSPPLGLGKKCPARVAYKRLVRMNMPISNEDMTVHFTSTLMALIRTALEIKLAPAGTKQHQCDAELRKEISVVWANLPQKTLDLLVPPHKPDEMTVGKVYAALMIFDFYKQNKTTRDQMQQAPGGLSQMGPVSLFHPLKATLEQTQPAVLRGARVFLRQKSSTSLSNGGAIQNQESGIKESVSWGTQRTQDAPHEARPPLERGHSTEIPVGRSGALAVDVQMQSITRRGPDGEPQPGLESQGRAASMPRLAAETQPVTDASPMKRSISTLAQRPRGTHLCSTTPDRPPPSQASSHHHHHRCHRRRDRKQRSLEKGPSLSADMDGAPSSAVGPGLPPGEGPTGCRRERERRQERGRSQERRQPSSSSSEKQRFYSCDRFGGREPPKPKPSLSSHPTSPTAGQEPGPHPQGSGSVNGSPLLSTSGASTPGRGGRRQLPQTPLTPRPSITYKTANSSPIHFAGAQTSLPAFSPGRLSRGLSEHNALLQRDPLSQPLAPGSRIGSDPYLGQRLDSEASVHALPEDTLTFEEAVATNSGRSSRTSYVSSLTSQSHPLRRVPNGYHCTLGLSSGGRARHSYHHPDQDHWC
T1 sequence (P54284 whole entry partner): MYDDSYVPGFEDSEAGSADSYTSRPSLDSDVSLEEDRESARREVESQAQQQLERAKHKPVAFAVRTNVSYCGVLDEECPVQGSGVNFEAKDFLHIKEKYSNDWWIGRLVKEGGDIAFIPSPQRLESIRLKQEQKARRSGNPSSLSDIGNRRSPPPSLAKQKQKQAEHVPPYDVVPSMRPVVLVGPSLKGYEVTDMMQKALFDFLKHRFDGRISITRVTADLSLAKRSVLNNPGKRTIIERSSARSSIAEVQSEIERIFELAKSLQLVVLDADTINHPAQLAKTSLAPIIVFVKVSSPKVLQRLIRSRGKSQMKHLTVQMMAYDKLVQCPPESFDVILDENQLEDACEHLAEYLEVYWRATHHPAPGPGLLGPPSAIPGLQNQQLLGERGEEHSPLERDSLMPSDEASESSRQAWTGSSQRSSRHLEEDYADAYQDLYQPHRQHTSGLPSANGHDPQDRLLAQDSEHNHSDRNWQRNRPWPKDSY
T1 sequence (P54289 25-946 partner limits assumed): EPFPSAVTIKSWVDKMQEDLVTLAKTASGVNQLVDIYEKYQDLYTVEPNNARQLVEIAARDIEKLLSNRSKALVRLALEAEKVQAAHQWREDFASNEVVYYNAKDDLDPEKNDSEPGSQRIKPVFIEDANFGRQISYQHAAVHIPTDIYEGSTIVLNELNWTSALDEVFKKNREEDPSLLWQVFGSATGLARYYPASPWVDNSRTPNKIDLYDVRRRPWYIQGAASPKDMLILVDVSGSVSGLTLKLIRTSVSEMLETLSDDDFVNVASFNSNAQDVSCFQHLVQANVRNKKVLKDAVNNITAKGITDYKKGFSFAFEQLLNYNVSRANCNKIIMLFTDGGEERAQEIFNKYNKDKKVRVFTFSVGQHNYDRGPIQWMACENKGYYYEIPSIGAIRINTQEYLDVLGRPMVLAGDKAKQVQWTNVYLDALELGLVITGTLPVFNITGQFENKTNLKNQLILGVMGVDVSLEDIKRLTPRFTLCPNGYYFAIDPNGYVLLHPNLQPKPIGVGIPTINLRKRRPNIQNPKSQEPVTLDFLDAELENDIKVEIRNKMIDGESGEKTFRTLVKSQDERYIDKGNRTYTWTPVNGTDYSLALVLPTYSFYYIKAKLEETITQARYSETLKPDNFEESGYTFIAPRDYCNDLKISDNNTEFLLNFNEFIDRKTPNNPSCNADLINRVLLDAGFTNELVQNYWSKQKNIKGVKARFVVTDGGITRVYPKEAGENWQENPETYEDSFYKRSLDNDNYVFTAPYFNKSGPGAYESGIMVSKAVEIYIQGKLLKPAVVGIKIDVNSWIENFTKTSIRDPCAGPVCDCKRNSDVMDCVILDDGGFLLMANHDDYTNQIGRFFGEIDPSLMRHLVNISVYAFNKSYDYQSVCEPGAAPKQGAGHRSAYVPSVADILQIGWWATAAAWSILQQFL
T1 sequence (P54289 947-1103 partner limits assumed): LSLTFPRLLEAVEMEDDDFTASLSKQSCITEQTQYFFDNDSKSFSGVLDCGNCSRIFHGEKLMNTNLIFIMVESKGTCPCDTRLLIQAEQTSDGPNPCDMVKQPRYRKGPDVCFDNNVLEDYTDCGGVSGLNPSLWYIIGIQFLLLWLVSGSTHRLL

Row | Compound | IMR 32 % of Blockade @ 0.3 μM [%]
1 | CCN(CCC(C)C)C(CC(C)C)C(=O)NC(Cc1ccc(OCc2ccccc2)cc1)C(=O)NC(C)(C)C (stereo not drawn) [Example 45, [S-(R*,R*)]-4Methyl-2-[ethyl-(3-methyl-butyl)-amino]-pentanoic acid [2-(4-benzyloxy-phenyl)-1-tert-butylcarbamoyl-ethyl]-amide] | 45

Same assay, conditions: 1 μM; IMR-32 cells, 5 μM nitrendipine

Row | Compound | IMR 32 % of Blockade @ 1 μM [%]
2 | CC(C)CCN(C)C(CC(C)C)C(=O)NC(Cc1ccc(OCc2ccccc2)cc1)C(=O)N1CCN(Cc2ccccc2)CC1 (stereo not drawn) [Example 10, [S-(R*,R*)]4-Methyl-2-[methyl-(3-methyl-butyl)-amino]-pentanoic acid [1-(4-benzyloxy-benzyl)-2-(4-benzyl-piperazin-1-yl)-2-oxo-ethyl]-amide] | 61

Same assay, conditions: 3 μM; IMR-32 cells, 5 μM nitrendipine

Row | Compound | IMR 32 % of Blockade @ 3 μM [%]
3 | CCN(CCC(C)C)C(CC(C)C)C(=O)NC(Cc1ccc(OCc2ccccc2)cc1)C(=O)NC(C)(C)C (stereo not drawn) [Example 45, [S-(R*,R*)]-4Methyl-2-[ethyl-(3-methyl-butyl)-amino]-pentanoic acid [2-(4-benzyloxy-phenyl)-1-tert-butylcarbamoyl-ethyl]-amide] | 77

Same assay, conditions: 10 μM; IMR-32 cells, 5 μM nitrendipine

Row | Compound | IMR 32 % of Blockade @ 10 μM [%]
4 | CC(C)CCN(C)C(CC(C)C)C(=O)NC(Cc1ccc(OCc2ccccc2)cc1)C(=O)N1CCN(Cc2ccccc2)CC1 (stereo not drawn) [Example 10, [S-(R*,R*)]4-Methyl-2-[methyl-(3-methyl-butyl)-amino]-pentanoic acid [1-(4-benzyloxy-benzyl)-2-(4-benzyl-piperazin-1-yl)-2-oxo-ethyl]-amide] | 80

Same assay, conditions: IMR-32 cells, 5 μM nitrendipine; Examples 116-140; read-out: IMR 32% of Blockade @

Row | Compound | IC50 [nM]
5 | CC(C)C[C@@H](C(=O)N[C@@H](Cc1ccc(OCc2ccccc2)cc1)C(=O)NCCCn1ccnc1)N(C)C (relative stereo) [Example 134, [S-(R*,R*)]-2-Dimethylamino-4-methyl-pentanoic acid [2-(4-benzyloxy-phenyl)-1-(3-imidazol-1-yl-propylcarbamoyl)-ethyl]-amide] | 1600
6 | CC(C)C[C@@H](C(=O)N[C@@H](Cc1ccc(OCc2ccccc2)cc1)C(=O)N1CCSCC1)N(C)C (relative stereo) [Example 135, [S-(R*,R*)]-2-Dimethylamino-4-methyl-pentanoic acid [2-(4-benzyloxy-phenyl)-1-(thiomorpholinecarbamoyl)-ethyl]-amide] | 1400
7 | CC(C)C[C@@H](C(=O)N[C@@H](Cc1ccc(OCc2ccccc2)cc1)C(=O)NC(C)CO)N(C)C (relative stereo) [Example 136, [S-(R*,R*)]-2-Dimethylamino-4-methyl-pentanoic acid [2-(4-benzyloxy-phenyl)-1-(2-aminopropan-1-olcarbamoyl)-ethyl]-amide] | 3600
8 | CCC(COC)NC(=O)[C@H](Cc1ccc(OCc2ccccc2)cc1)NC(=O)[C@H](CC(C)C)N(C)C (relative stereo) [Example 138, [S-(R*,R*)]-2-Dimethylamino-4-methyl-pentanoic acid [2-(4-benzyloxy-phenyl)-1-(1-methoxymethyl-propylcarbamoyl)-ethyl]-amide] | 3000
9 | CC(C)C[C@@H](C(=O)N[C@@H](Cc1ccc(OCc2ccccc2)cc1)C(=O)NCCN1CCCC1)N(C)C (relative stereo) [Example 139, [S-(R*,R*)]-2-Dimethylamino-4-methyl-pentanoic acid [2-(4-benzyloxy-phenyl)-1-(2-pyrrolidin-1-yl-ethylcarbamoyl)-ethyl]-amide] | 38800
10 | CC(C)CC(C(=O)NC(Cc1ccc(OCc2ccccc2)cc1)C(=O)NCCN1CCOCC1)N1CCOCC1 (stereo not drawn) [Example 119, [S-(R*,R*)]-4-Methyl-2-morpholin-4-yl-pentanoic acid [2-(4-benzyloxy-phenyl)-1-(2-morpholin-4-yl-ethylcarbamoyl)-ethyl]-amide] | 18000
11 | CC(C)CC(C(=O)NC(Cc1ccc(OCc2ccccc2)cc1)C(=O)NCCCn1ccnc1)N1CCOCC1 (stereo not drawn) [Example 121, [S-(R*,R*)]-4-Methyl-2-morpholin-4-yl-pentanoic acid [2-(4-benzyloxy-phenyl)-1-(3-imidazol-1-yl-propylcarbamoyl)-ethyl]-amide] | 14000
12 | CC(C)CC(C(=O)NC(Cc1ccc(OCc2ccccc2)cc1)C(=O)NCCNCCO)N(C)C (stereo not drawn) [Example 140, [S-(R*,R*)]-2-Dimethylamino-4-methyl-pentanoic acid {2-(4-benzyloxy-phenyl)-1-[2-(2-hydroxy-ethylamino)-ethylcarbamoyl]-ethyl}-amide] | 5100
13 | [S-(R*,R*)]-2-Dimethylamino-4-methyl-pentanoic acid [2-(4-benzyloxy-phenyl)-1-(2-hydroxymethylbutan-1-ol)-ethyl]-amide [Example 137] | 6200

Same assay, conditions: IMR-32 cells, K+ depolarization, 5 μM nitrendipine to block L-type channels; read-out: IMR 32 IC50

Row | Compound | IC50 [nM]
14 | CC(C)CCN(C)[C@@H](CC(C)C)C(=O)NC(Cc1ccc(OCc2ccccc2)cc1)C(=O)NCCNCc1ccccc1 (stereo in doubt) [Example 60, [S(R*,R*)]-4-Methyl-2-[methyl-(3-methyl-butyl)-amino]-pentanoic acid [1-(2-benzylamino-ethylcarbamoyl)-2-(4-benzyloxy-phenyl)-ethyl]-amide] | 200
15 | CC(C)CC(C(=O)NC(Cc1ccc(OCc2ccccc2)cc1)C(=O)N1CCN(C)CC1)N(C)CC1CCCCC1 (stereo not drawn) [Example 30, [S-(R*,R*)]-2-(Cyclohexylmethyl-methyl-amino)-4-methyl-pentanoic acid [1-(4-benzyloxy-benzyl)-2-(4-methyl-piperazin-1-yl)-2-oxo-ethyl]-amide] | 1200
16 | CC(C)CC(NCc1ccc(C(C)(C)C)cc1)C(=O)NC(Cc1ccc(OCc2ccccc2)cc1)C(=O)NC(C)(C)C (stereo not drawn) [Example 50, [S-(R*,R*)]-2-(4-tert-Butyl-benzylamino)-4-methyl-pentanoic acid [2-(4-benzyloxy-phenyl)-1-tert-butylcarbamoyl-ethyl]-amide] | 420
17 | CC(C)CC(C(=O)NC(Cc1ccc(OCc2ccccc2)cc1)C(=O)NC(C)(C)C)N(C)Cc1ccccc1 (stereo not drawn) [Example 54, [S-(R*,R*)]-2-(Benzyl-methyl-amino)-4-methyl-pentanoic acid [2-(4-benzyloxy-phenyl)-1-tert-butylcarbamoyl-ethyl]-amide] | 360
18 | CC(C)CC(C(=O)NC(Cc1ccc(NCc2ccccc2)cc1)C(=O)NC(C)(C)C)N(C)Cc1ccc(C(C)(C)C)cc1 (stereo not drawn) [Example 55, [S-(R*,R*)]-2-[(4-tert-Butyl-benzyl)-methyl-amino]-4-methyl-pentanoic acid [2-(4-benzylamino-phenyl)-1-tert-butylcarbamoyl-ethyl]-amide] | 100
19 | CC(C)CCN(C)C(CC(C)C)C(=O)NC(Cc1ccc(OCc2ccccc2)cc1)C(=O)NCCNCCO (stereo not drawn) [Example 66, [S-(R*,R*)]-4-Methyl-2-[methyl-(3-methyl-butyl)-amino]-pentanoic acid {2-(4-benzyloxy-phenyl)-1-[2-(2-hydroxy-ethylamino)-ethylcarbamoyl]-ethyl}-amide] | 1900
20 | CC(C)CC(C(=O)NC(Cc1ccc(OCc2ccccc2)cc1)C(=O)N1CCCCC1)N1CCOCC1 (stereo not drawn) [Example 70, [S-(R*,R*)]-4-Methyl-2-morpholin-4-yl-pentanoic acid [1-(4-benzyloxy-benzyl)-2-oxo-2-piperidin-1-yl-ethyl]-amide] | 2300
21 | CC(C)CC(NC1CCOCC1)C(=O)NC(Cc1ccc(OCc2ccccc2)cc1)C(=O)NC(C)(C)CO (stereo not drawn) [Example 73, [S-(R*,R*)]-4-Methyl-2-(tetrahydro-pyran4-ylamino)-pentanoic acid [2-(4-benzyloxy-phenyl)-1-(2-hydroxy-1,1-dimethyl-ethylearbamoyl)-ethyl]-amide] | 2700
22 | CCC(CO)(CO)NC(=O)C(Cc1ccc(OCc2ccccc2)cc1)NC(=O)C(CC(C)C)NC1CCOCC1 (stereo not drawn) [Example 74, [S-(R*,R*)]-4-Methyl-2-(tetrahydro-pyran-4-ylamino)-pentanoic acid [2-(4-benzyloxy-phenyl)-1-(1,1-bis-hydroxymethyl-propylcarbamoyl)-ethyl]-amide] | 2600
23 | CC(C)CC(NC1CCOCC1)C(=O)NC(Cc1ccc(OCc2ccccc2)cc1)C(=O)NC(C)(C)C (stereo not drawn) [Example 78, [S-(R*,R*)]-4-Methyl-2-(tetrahydro-pyran-4-ylamino)-pentanoic acid [2-(4-benzyloxy-phenyl)-1-tert-butylcarbamoyl-ethyl]-amide] | 1600
24 | CC(C)CC(C(=O)NC(Cc1ccc(OCc2ccccc2)cc1)C(=O)NC(C)(C)C)N(C)Cc1ccc(F)cc1 (stereo not drawn) [Example 80, [S-(R*,R*)]-2-[(4-Fluoro-benzyl)-methyl-amino]-4-methyl-pentanoic acid [2-(4-benzyloxy-phenyl)-1-tert-butylcarbamoyl-ethyl]-amide] | 300
25 | CC(C)CC(NC1CCOCC1)C(=O)NC(Cc1ccc(OCc2ccccc2)cc1)C(=O)OC(C)(C)C (stereo not drawn) [Example 85, [S-(R*,R*)]-3-(4-Benzyloxy-phenyl)-2-[4-methyl-2-(tetrahydro-pyran-4-ylamino)-pentanoylamino]-propionic acid tert-butyl ester] | 320
26 | CC(C)CCN(C)CC(=O)NC(Cc1ccc(OCc2ccccc2)cc1)C(=O)NC(C)(C)C (stereo not drawn) [Example 102, [S-(R*,R*)]-3-(4-Benzyloxy-phenyl)-N-tert-butyl-2-{2-[methyl-(3-methyl-butyl)-amino]-acetylamino}-propionamide] | 1600

Other lines, results leading:

Row | IC50 [nM] | Compound
27 | 460 | CC(C)CCNC(CC(C)C)C(=O)NC(Cc1ccc(OCc2ccccc2)cc1)C(=O)OC(C)(C)C (stereo not drawn) [Example 95, [S-(R*,R*)]-3-(4-Benzyloxy-phenyl)2-[4-methyl-2-(3-methyl-butylamino)-pentanoylamino]-propionic acid tert-butyl ester]
28 | 1300 | CC(C)CCNC(C)(C)C(=O)N[C@@H](Cc1ccc(OCc2ccccc2)cc1)C(=O)NC(C)(C)C [Example 104, (S)-N-[2-(4-Benzyloxy-phenyl)-1-tert-butylcarbamoyl-ethyl]-2-(3-methyl-butylamino)-isobutyramide]

Same assay, conditions: read-out: IMR 32% of Blockade @

Row | Compound | IC50 [nM]
29 | CC(C)C[C@@H](C(=O)N[C@@H](Cc1ccc(OCc2ccccc2)cc1)C(=O)NCCc1ccccn1)N(C)C (relative stereo) [Example 133, [S-(R*,R*)]-2-Dimethylamino-4-methyl-pentanoic acid [2-(4-benzyloxy-phenyl)-1-(2-(2-aminoethyl)pyridinecarbamoyl)-ethyl]-amide] | 5900

Same assay, conditions: read-out: IMR 32 IC50

Row | Compound | IC50 [nM]
30 | CCN(CC)C(CC(C)C)C(=O)N[C@@H](Cc1ccc(OCc2ccccc2)cc1)C(=O)NC(C)(C)C (stereo in doubt) [Example 37, [S-(R*,R*/S*)]-2-Diethylamino-4-methyl-pentanoic acid[2-(4-benzyloxy-phenyl)-1-tert-butylcarbamoyl-ethyl]-amide] | 1000
